The test has as its target T1, acetylcholinesterase (Rattus norvegicus, UniProt P37136).
T1 construct: Using a rat brain homogenate as a source of acetylcholinesterase; from tissue; host or cells: rat brain homogenate
As to the kind of experiment: biochemical. To be noted: rat brain homogenate as source of acetylcholinesterase; acetylthiocholine substrate, DTNB, absorbance at 412 nm. The method, then:
Using a rat brain homogenate as a source of acetylcholinesterase, the esterase activity was determined in accordance with the method of Ellman et al^1).
^1); Ellman. G. L., Courtney, K. D., Andres, V. and Featherstone, R. M., (1961), Biochem. Pharmacol., 7, 88-95.

Each structure is given as a SMILES string. pIC50: −log10 of the molar value.

T1 sequence (P37136 32-614): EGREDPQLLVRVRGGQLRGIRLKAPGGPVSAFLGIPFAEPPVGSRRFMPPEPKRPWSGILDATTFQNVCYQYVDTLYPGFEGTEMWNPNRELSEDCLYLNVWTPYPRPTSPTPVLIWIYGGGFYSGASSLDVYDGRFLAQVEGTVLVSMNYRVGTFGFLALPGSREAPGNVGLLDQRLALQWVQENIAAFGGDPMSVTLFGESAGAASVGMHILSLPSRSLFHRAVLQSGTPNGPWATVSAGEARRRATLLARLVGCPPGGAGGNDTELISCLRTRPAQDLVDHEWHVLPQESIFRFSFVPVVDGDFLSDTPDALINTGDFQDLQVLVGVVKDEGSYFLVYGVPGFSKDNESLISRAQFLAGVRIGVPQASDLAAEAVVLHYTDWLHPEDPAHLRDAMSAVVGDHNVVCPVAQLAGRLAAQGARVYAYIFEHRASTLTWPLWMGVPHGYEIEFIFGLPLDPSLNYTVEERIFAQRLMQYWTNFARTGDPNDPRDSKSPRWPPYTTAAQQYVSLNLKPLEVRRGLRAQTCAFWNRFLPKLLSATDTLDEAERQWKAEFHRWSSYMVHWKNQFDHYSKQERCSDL

For `COc1cc2c(cc1OC)C(=O)C(Cc1cc[n+](Cc3ccccc3)cc1)C2` (stereo not shown) [Example 1, 1-Benzyl-4-[(5.6-dimethoxy-1-indanone)-2-yl]methylpyridinium bromide], the pIC50 – broadly, the negative decadic logarithm of the IC50, by convention in mol/L – was 8.42.
